The values below come from ChEMBL document CHEMBL1154267, “Imidazo[1,5-a][1,2,4]-triazolo[1,5-d][1,4]benzodiazepines as potent and highly selective GABAA alpha5 inverse agonists with potential for the treatment of cognitive dysfunction” (Bioorg Med Chem Lett, 2009).

As a reminder, the Ki is the dissociation constant of the complex between target and ligand, obtained from inhibition or displacement. A high value points to weaker binding. As usually defined, the Kp is the ratio of the level in a tissue or fluid to that in plasma or blood. As a reminder, the bioavailability is the share of a dose that reaches the circulation, judged against a reference dose that is usually intravenous. A low value points to poor availability. In general, logD refers to the decadic logarithm of the distribution of all forms, ionised or not, between an organic phase and buffer at a given pH. Lower therefore signals lower lipophilicity. Usually half-life stands for the time needed for the level to fall by half in the phase considered. A high value points to slow decline. Usually clearance stands for the rate of elimination divided by the concentration. A high value points to a high capacity for elimination. In general, solubility refers to how much of the substance goes into solution per volume. A lower solubility goes with little dissolved substance.

Series [1] deals with T1, GABA-A receptor; alpha-5/beta-3/gamma-2 (Homo sapiens, UniProt P18507+P28472+P31644).
T1 sequence (P18507 whole entry): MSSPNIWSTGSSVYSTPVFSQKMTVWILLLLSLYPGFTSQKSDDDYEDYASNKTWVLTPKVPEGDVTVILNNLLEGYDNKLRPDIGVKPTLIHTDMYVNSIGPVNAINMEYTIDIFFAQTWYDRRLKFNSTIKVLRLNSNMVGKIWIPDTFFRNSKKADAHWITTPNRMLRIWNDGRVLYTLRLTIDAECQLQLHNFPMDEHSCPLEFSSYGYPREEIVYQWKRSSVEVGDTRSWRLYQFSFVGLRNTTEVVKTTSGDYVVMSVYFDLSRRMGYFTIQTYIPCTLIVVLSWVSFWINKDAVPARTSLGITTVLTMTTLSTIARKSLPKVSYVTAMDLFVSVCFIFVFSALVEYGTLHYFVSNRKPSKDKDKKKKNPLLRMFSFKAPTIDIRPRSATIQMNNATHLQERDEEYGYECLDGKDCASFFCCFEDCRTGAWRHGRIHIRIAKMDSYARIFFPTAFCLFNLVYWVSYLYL
T1 sequence (P28472 whole entry): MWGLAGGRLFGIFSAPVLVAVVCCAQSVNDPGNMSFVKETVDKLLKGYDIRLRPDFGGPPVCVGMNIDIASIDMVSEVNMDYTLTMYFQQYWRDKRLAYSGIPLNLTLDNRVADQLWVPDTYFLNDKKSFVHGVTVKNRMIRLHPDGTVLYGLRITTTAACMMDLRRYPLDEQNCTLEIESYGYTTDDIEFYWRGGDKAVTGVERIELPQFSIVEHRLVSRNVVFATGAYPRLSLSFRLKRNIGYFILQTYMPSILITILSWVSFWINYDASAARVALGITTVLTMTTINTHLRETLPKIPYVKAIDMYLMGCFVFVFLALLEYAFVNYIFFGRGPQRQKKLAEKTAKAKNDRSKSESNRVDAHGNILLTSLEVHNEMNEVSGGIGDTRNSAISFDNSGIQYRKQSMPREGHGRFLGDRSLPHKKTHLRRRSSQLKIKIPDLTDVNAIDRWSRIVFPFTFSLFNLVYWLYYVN
T1 sequence (P31644 whole entry): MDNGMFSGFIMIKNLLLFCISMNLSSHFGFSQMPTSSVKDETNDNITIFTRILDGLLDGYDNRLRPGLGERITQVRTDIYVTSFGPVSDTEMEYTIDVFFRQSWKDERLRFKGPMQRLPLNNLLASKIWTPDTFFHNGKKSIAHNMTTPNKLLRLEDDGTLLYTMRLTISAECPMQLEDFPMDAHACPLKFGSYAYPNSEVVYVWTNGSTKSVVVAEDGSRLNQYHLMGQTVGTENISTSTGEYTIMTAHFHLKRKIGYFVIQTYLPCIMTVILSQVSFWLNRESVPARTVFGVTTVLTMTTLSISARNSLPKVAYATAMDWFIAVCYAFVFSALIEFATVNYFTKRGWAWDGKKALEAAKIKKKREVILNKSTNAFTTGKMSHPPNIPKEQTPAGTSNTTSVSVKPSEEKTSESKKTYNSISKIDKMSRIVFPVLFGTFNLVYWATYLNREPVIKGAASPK
Nature of the series: Displacement of [3H]flumazenil from GABAA alpha-5-beta-3-gamma-2 receptor. Type of series: protein-complex assay. (Displacement assays read how much labelled ligand stays bound in the presence of the test substance.)

Series [2] can be described thus: Ratio of drug level in brain to plasma in rat. The class given is ADME, organism-based. The conditions noted are these: brain and plasma.
The nature of series [3]: Selectivity ratio of Ki for GABAA alpha-2-beta-3-gamma-2 receptor to Ki for GABAA alpha-5-beta-3-gamma-2 receptor.
A short description of series [4]: Oral bioavailability in rat. The class given is ADME, organism-based. The conditions noted are these: in vivo.
A short description of series [5]: Lipophilicity, log D at pH 7.4. The class given is physicochemical. The settings on record: buffer.
A short description of series [6]: Selectivity ratio of Ki for GABAA alpha-1-beta-3-gamma-2 receptor to Ki for GABAA alpha-5-beta-3-gamma-2 receptor.
Series [7] in a line: Volume of distribution at steady state in rat. Type of series: ADME, organism-based. The conditions noted are these: in vivo, read-out: Vdss.
A short description of series [8]: Permeability by PAMPA. Type of series: ADME. The settings on record: read-out: permeability. On the technique in general: The PAMPA barrier holds no transporters, so it reflects passive diffusion.
A short description of series [9]: Half life in rat. Type of series: ADME, organism-based. The settings on record: in vivo.
The nature of series [10]: Clearance in rat. Type of series: ADME, organism-based. The conditions noted are these: in vivo.
The subject of series [11] is Rattus norvegicus. Nature of the series: Behavioral effect in Lister hooded rat assessed as reversal of Scopolamine-induced impairment of working memory at 1 mg/kg, po administered 30 mins before Scopolamine challenge by delayed match to position test. Type of series: functional, organism-based. Also noted: dose 1 mg/kg.
Series [12] is described as follows: Selectivity ratio of Ki for GABAA alpha-3-beta-3-gamma-2 receptor to Ki for GABAA alpha-5-beta-3-gamma-2 receptor.
The nature of series [13]: Solubility of the compound. The class given is physicochemical.
The target of series [14] is GABA-A receptor; alpha-5/beta-3/gamma-2 (Homo sapiens) (UniProt P18507+P28472+P31644). Nature of the series: Inverse agonist activity at GABAA alpha-5-beta-3-gamma-2 receptor assessed as modulation of GABA-induced chloride ion flux by electrophysiology assay relative to GABA. The class given is functional.
The species named for series [15] is Rattus norvegicus. Nature of the series: Toxicity in Lister hooded rat assessed as behavioral impairment. The conditions noted are these: in vivo. Type of series: organism-based.
Series [16] concerns Liver microsomes. Nature of the series: Clearance in rat liver microsomes. Type of series: ADME, Microsome.
Series [17] relates to Rattus norvegicus. Nature of the series: Behavioral effect in Lister hooded rat assessed as inhibition of scopolamine-induced impairment of working memory at 1 to 3 mg/kg, po after 30 mins by delayed match to position test. Type of series: functional, organism-based.
Series [18] addresses T2, GABA-A receptor; alpha-3/beta-3/gamma-2 (Homo sapiens, UniProt P18507+P28472+P34903).
T2 sequence (P18507 whole entry): T1 sequence (P18507 whole entry)
T2 sequence (P28472 whole entry): T1 sequence (P28472 whole entry)
T2 sequence (P34903 whole entry): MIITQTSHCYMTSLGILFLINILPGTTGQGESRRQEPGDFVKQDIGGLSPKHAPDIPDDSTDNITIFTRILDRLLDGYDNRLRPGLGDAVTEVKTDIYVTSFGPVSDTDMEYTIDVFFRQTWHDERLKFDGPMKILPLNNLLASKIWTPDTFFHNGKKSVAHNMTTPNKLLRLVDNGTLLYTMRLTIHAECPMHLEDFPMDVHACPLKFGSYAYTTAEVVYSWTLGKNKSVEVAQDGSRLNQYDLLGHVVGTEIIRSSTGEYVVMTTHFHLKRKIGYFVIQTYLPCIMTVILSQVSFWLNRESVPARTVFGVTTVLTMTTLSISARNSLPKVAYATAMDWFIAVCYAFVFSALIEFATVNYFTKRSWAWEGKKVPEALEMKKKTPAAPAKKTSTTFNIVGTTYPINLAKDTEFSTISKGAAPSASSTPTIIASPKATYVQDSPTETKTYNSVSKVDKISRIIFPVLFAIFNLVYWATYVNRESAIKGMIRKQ
Nature of the series: Displacement of [3H]flumazenil from GABAA alpha-3-beta-3-gamma-2 receptor. Type of series: protein-complex assay.

For series [19], the system named is Liver microsomes. Nature of the series: Clearance in human liver microsomes. Type of series: ADME, Microsome. In general terms: Microsomes from liver hold many membrane-bound enzymes, among them those of drug oxidation.
Series [20] has as its target T3, GABA-A receptor; alpha-2/beta-3/gamma-2 (Homo sapiens, UniProt P18507+P28472+P47869).
T3 sequence (P18507 whole entry): T1 sequence (P18507 whole entry)
T3 sequence (P28472 whole entry): T1 sequence (P28472 whole entry)
T3 sequence (P47869 whole entry): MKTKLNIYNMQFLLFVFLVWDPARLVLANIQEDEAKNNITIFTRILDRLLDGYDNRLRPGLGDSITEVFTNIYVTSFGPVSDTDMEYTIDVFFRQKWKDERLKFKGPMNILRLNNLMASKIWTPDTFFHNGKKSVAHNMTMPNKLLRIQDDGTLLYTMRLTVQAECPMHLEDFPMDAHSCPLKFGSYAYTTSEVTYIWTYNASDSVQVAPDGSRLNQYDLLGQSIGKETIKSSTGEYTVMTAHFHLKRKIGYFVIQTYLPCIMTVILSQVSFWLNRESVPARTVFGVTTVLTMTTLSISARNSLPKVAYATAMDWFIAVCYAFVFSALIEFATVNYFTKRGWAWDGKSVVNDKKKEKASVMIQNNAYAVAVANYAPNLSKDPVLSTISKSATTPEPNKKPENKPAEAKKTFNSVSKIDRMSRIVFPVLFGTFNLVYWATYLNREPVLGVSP
Nature of the series: Displacement of [3H]flumazenil from GABAA alpha-2-beta-3-gamma-2 receptor. The class given is protein-complex assay.

Series [21] deals with Rattus norvegicus. Nature of the series: Behavioral effect in Lister hooded rat assessed as reversal of Scopolamine-induced impairment of working memory at 1 to 3 mg/kg, ip administered 30 mins before Scopolamine challenge by delayed match to position test. Type of series: functional, organism-based.
For series [22], the target named is T4, GABA-A receptor; alpha-1/beta-3/gamma-2 (Homo sapiens, UniProt P14867+P18507+P28472).
T4 sequence (P14867 whole entry): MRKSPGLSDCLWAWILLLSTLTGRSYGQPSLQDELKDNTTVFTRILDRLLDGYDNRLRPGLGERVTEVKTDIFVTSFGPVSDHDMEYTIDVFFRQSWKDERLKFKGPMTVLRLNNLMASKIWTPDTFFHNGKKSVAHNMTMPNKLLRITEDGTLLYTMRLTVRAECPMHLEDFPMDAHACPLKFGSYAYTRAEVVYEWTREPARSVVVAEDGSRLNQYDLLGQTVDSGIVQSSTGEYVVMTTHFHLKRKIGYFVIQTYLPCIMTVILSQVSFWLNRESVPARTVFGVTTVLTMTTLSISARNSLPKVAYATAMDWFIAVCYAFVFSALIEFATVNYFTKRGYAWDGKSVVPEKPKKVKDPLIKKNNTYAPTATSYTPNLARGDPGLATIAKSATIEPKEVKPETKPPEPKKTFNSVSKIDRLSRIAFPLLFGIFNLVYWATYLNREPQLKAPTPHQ
T4 sequence (P18507 whole entry): T1 sequence (P18507 whole entry)
T4 sequence (P28472 whole entry): T1 sequence (P28472 whole entry)
Nature of the series: Displacement of [3H]flumazenil from GABAA alpha-1-beta-3-gamma-2 receptor. The class given is protein-complex assay.

≈ marks a conversion by molar mass, not a printed value. Calls of active or inactive are those of the source.

Compound `Cc1cc(Cc2nc3n(n2)Cc2c(C)ncn2-c2ccc(Cl)cc2-3)on1` had an inhibitory constant (Ki) in [1] of 0.6 nM. Besides, the concentration ratio (Kp) in series [2] came out at 1. Moreover, the Ratio Ki in series [3] was found to be 251; in series [6], 466; in series [12], 223. In [4], this compound came in with a bioavailability of 44%. Besides, the logD in [5] stood at 2.3. Also, the Vd in [7] is 1.8 L/kg. Further, in series [8], the Papp was 3.1 ×10⁻⁶ cm/s. The compound also had a half-life in series [9] of 1.4 h. Also, in [10], the clearance worked out at 9.5 mL/min/kg. Also, the result in the series on Rattus norvegicus [11] was Active. In addition, in series [13], the concentration in solution (solubility) came to 14 µg/mL (≈ 38.2 µM). For the same compound, the Efficacy in [14] was -18%. In addition, the Activity result in the series filed under Rattus norvegicus [15] was “Non-toxic”. Also, the CL in the series with Liver microsomes [16] was found to be 6000 µL/min/mg.

In the case of `Cc1ncn2c1Cn1nc(CN3CCCC3=O)nc1-c1cc(Br)ccc1-2`, the Ki in series [1] was 7 nM; in series [18] it was 515 nM; in series [20] it was 669 nM; in series [22] it was 624 nM. In [2], the partition ratio (Kp) was 0.09. Also, in the series on Rattus norvegicus [17], the outcome was inactive. The compound further showed a bioavailability in series [4] of 32%. The pH-dependent lipophilicity (logD) in series [5] was 1.5. The Vd in [7] was 1.3 L/kg. The same compound showed a CL with Liver microsomes [19] of 3000 µL/min/mg. The Activity entry in the series with Rattus norvegicus [21] was “Dose-dependent effect”. For the same compound, the Papp in series [8] came to 1.5 ×10⁻⁶ cm/s. This compound had a half-life in series [9] of 0.8 h. In series [10], this compound registered a clearance of 30 mL/min/kg. In [13], this compound had a solubility of 550 µg/mL (≈ 1330 µM). Also, in [14], the Efficacy is -34%.
